Test results as given in patent publication US11780826B2 (Amgen Inc., priority 2017, dated 2023).

System: Bovine cardiac myofibrils
Experiment: In vitro model of dose-dependent myofibril ATPase modulation (AC1.4, pyruvate kinase/lactate dehydrogenase-coupled ATPase assay at pCa25)
Type: biochemical
Conditions: concentration at which ATPase activity was 1.4-fold higher than the bottom of the dose curve, mean of a minimum of two independent tests
How it was run: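 Coupled-enzyme ATPase on bovine heart myofibrils, 1 mM ATP, EGTA/CaCl2 buffered; 340 nm readout.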

| Structure (SMILES) | AC1.4 [µM] |
| --- | --- |
| CC[C@H](NC(=O)[C@H]1CCCN1C(=O)c1cccc(S(=O)(=O)N2CC(C#N)C2)c1)c1cc(F)cc(F)c1 [Example 165, 1-(3-((3-cyano-1-azetidinyl)sulfonyl)benzoyl)-N-((1S)-1-(3,5-difluorophenyl)propyl)-D-prolinamide] | 0.2792 |
| CS(=O)(=O)C1CN(S(=O)(=O)N2CCC[C@H](C(=O)N3CCC[C@@H]3C(=O)NCc3cc(F)cc(F)c3)C2)C1 [Example 429, N-(3,5-difluorobenzyl)-1-(((3S)-1-((3-(methylsulfonyl)-1-azetidinyl)sulfonyl)-3-piperidinyl)carbonyl)-D-prolinamide] | 1.6075 |
| N#CC1CN(S(=O)(=O)N2CCC[C@H](C(=O)N3CCC[C@@H]3C(=O)N[C@H](CC(F)(F)F)c3ccc(C(F)(F)F)cc3)C2)C1 [Example 28, 1-(((3S)-1-((3-cyano-1-azetidinyl)sulfonyl)-3-piperidinyl)carbonyl)-N-((1R)-3,3,3-trifluoro-1-(4-(trifluoromethyl)phenyl)propyl)-D-prolinamide] | 0.03125 |
| C[C@@H](NC(=O)[C@H]1CCCN1C(=O)[C@H]1CCCN(S(=O)(=O)N2CC(C#N)C2)C1)c1ccc(C(F)F)cc1 [Example 248, 1-(((3S)-1-((3-cyano-1-azetidinyl)sulfonyl)-3-piperidinyl)carbonyl)-N-((1R)-1-(4-(difluoromethyl)phenyl)ethyl)-D-prolinamide] | 0.5915 |
| O=C(N[C@@H](c1ccc(C(F)(F)F)cc1F)C1CC1)[C@H]1CCCCN1C(=O)c1cccc(C(O)(O)C(F)(F)F)c1 [Example 322, (2R)-N-((R)-cyclopropyl(2-fluoro-4-(trifluoromethyl)phenyl)methyl)-1-(3-(2,2,2-trifluoro-1,1-dihydroxyethyl)benzoyl)-2-piperidinecarboxamide] | 0.8731 |
| O=C(N[C@@H](c1ccc(C(F)(F)F)cc1F)C1COC1)[C@H]1C[C@H]2C[C@H]2N1C(=O)c1ccccc1NC(=O)C(F)(F)F [Example 351, (1R,3R,5R)-N-((R)-(2-fluoro-4-(trifluoromethyl)phenyl)(3-oxetanyl)methyl)-2-(2-(2,2,2-trifluoroacetamido)benzoyl)-2-azabicyclo[3.1.0]hexane-3-carboxamide] | 1.0354 |
| CCS(=O)(=O)c1cccc(C(=O)N2[C@@H](C(=O)N[C@@H](c3cc(F)c(C(F)F)cc3F)C3CC3)C[C@H]3C[C@H]32)c1 [Example 178, (1R,3R,5R)-N-((R)-cyclopropyl(4-(difluoromethyl)-2,5-difluorophenyl)methyl)-2-(3-(ethylsulfonyl)benzoyl)-2-azabicyclo[3.1.0]hexane-3-carboxamide] | 0.314 |
| N#CC1CN(S(=O)(=O)c2cccc(C(=O)N3CCC[C@@H]3C(=O)NCc3ccc(CF)cc3)c2)C1 [Example 157, 1-((3-((3-cyano-1-azetidinyl)sulfonyl)phenyl)carbonyl)-N-(4-(fluoromethyl)benzyl)-D-prolinamide] | 0.2727 |
| N#CC1CN(S(=O)(=O)N2CC[C@H](C(=O)N3CCC[C@@H]3C(=O)NCc3ccc(C(F)(F)F)cc3F)C2)C1 [Example 470, 1-(((3S)-1-((3-cyano-1-azetidinyl)sulfonyl)-3-pyrrolidinyl)carbonyl)-N-(2-fluoro-4-(trifluoromethyl)benzyl)-D-prolinamide] | 1.9915 |
| COc1cc(C)ccc1CNC(=O)[C@H]1CCCN1C(=O)[C@H]1CCCN(S(=O)(=O)N2CC(C#N)C2)C1 [Example 417, 1-(((3S)-1-((3-cyano-1-azetidinyl)sulfonyl)-3-piperidinyl)carbonyl)-N-(2-methoxy-4-methylbenzyl)-D-prolinamide] | 1.53 |
| CC(C)(C)OC1CN(S(=O)(=O)N2CCC[C@H](C(=O)N3CCC[C@@H]3C(=O)NCc3ccc(C(F)(F)F)cc3)C2)C1 [Example 734, 1-(((3S)-1-((3-tert-butoxy-1-azetidinyl)sulfonyl)-3-piperidinyl)carbonyl)-N-(4-(trifluoromethyl)benzyl)-D-prolinamide] | 6.866 |
| Cc1cc(Cl)ccc1CNC(=O)[C@H]1CCCN1C(=O)[C@H]1CCCN(S(=O)(=O)N2CC(C#N)C2)C1 [Example 119, N-(4-chloro-2-methylbenzyl)-1-(((3S)-1-((3-cyano-1-azetidinyl)sulfonyl)-3-piperidinyl)carbonyl)-D-prolinamide] | 0.1819 |
| Cc1ccc(F)cc1CNC(=O)[C@H]1CCCN1C(=O)[C@H]1CCCN(S(=O)(=O)N2CC(C#N)C2)C1 [Example 508, 1-(((3S)-1-((3-cyano-1-azetidinyl)sulfonyl)-3-piperidinyl)carbonyl)-N-(5-fluoro-2-methylbenzyl)-D-prolinamide] | 2.3805 |

Continued, values first:

| AC1.4 [µM] | Structure (SMILES) |
| --- | --- |
| 3.1825 | CS(=O)(=O)c1cccc(C(=O)N2[C@@H](C(=O)N[C@@H](c3cc(F)c(C#N)cc3F)C3CC3)C[C@H]3C[C@H]32)c1 [Example 570, (1R,3R,5R)-N-((R)-(4-cyano-2,5-difluorophenyl)(cyclopropyl)methyl)-2-(3-(methylsulfonyl)benzoyl)-2-azabicyclo[3.1.0]hexane-3-carboxamide] |
| 3.1075 | CS(=O)(=O)c1ccc(C(=O)N2CCC[C@@H]2C(=O)NC(c2ccc(C(F)(F)F)cc2F)C2CC2)s1 (stereo partly drawn) [Example 567, (2R)-N-(cyclopropyl(2-fluoro-4-(trifluoromethyl)phenyl)methyl)-1-(5-(methylsulfonyl)thiophene-2-carbonyl)pyrrolidine-2-carboxamide] |
| 7.041 | Cc1cc(C(=O)N2[C@@H](C(=O)N[C@@H](c3cc(F)c(Cl)cc3F)C3CC3)C[C@H]3C[C@H]32)ccn1 [Example 736, (1R,3R,5R)-N-((R)-(4-chloro-2,5-difluorophenyl)(cyclopropyl)methyl)-2-((2-methyl-4-pyridinyl)carbonyl)-2-azabicyclo[3.1.0]hexane-3-carboxamide] |
| 5.246 | CS(=O)(=O)c1cccc(C(=O)N2[C@@H](C(=O)NC(c3ccc(C(F)(F)F)cc3F)C3CNC(=O)C3)C[C@H]3C[C@H]32)c1 (stereo partly drawn) [Example 685, (1R,3R,5R)-N-((2-fluoro-4-(trifluoromethyl)phenyl)(5-oxopyrrolidin-3-yl)methyl)-2-(3-(methylsulfonyl)benzoyl)-2-azabicyclo[3.1.0]hexane-3-carboxamide] |
| 2.8405 | N#CC1CN(S(=O)(=O)N2CCC[C@H](C(=O)N3CCC[C@@H]3C(=O)NCc3cc(Cl)ccc3F)C2)C1 [Example 549, N-(5-chloro-2-fluorobenzyl)-1-(((3S)-1-((3-cyano-1-azetidinyl)sulfonyl)-3-piperidinyl)carbonyl)-D-prolinamide] |
| 2.5923 | CS(=O)(=O)c1ccnc(C(=O)N2CCC[C@@H]2C(=O)N[C@@H](c2ccc(C(F)(F)F)cc2F)C2CC2)c1 [Example 526, N-((R)-cyclopropyl(2-fluoro-4-(trifluoromethyl)phenyl)methyl)-1-((4-(methylsulfonyl)-2-pyridinyl)carbonyl)-D-prolinamide] |
| 6.3585 | C[C@H](C(=O)NCc1ccnc(C(F)(F)F)c1)N(C)C(=O)c1cccc(S(=O)(=O)N2CC(C#N)C2)c1 [Example 722, 3-((3-cyano-1-azetidinyl)sulfonyl)-N-methyl-N-((1R)-1-methyl-2-oxo-2-(((2-(trifluoromethyl)-4-pyridinyl)methyl)amino)ethyl)benzamide] |
